Results from ChEMBL document CHEMBL1201862, “PubChem BioAssay data set” (2004).
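Compound exposure: 48 hours, 5 concentrations, 96-well plates. At the GI50, growth is halved.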 Active and inactive are the calls of the source. No stated cut-off is given here; in the data, active = GI50 up to about 1.1 µM and inactive = higher.

Key:
Assay in all cases: growth of human tumour cells (NCI), 48 h
786-0 = system: 786-0
A498 = system: A498
A549 = system: A549
ACHN = system: ACHN
BT-549 = system: BT-549
CAKI-1 = system: CAKI-1
CCRF-CEM = system: CCRF-CEM
COLO 205 = system: COLO 205
DU-145 = system: DU-145
EKVX = system: EKVX
HCC 2998 = system: HCC 2998
HCT-116 = system: HCT-116
HCT-15 = system: HCT-15
HL-60 = system: HL-60
HOP-62 = system: HOP-62
HOP-92 = system: HOP-92
HT-29 = system: HT-29
Hs-578T = system: Hs-578T
IGROV-1 = system: IGROV-1
K562 = system: K562
KM12 = system: KM12
LOX IMVI = system: LOX IMVI
M14 = system: M14
MCF7 = system: MCF7
MDA-MB-231 = system: MDA-MB-231
MDA-MB-435 = system: MDA-MB-435
MDA-N = system: MDA-N
MOLT-4 = system: MOLT-4
Malme-3M = system: Malme-3M
NCI-H226 = system: NCI-H226
NCI-H23 = system: NCI-H23
NCI-H460 = system: NCI-H460
NCI-H522 = system: NCI-H522
NCI/ADR-RES = system: NCI/ADR-RES
OVCAR-3 = system: OVCAR-3
OVCAR-4 = system: OVCAR-4
OVCAR-5 = system: OVCAR-5
OVCAR-8 = system: OVCAR-8
PC-3 = system: PC-3
RPMI-8226 = system: RPMI-8226
RXF 393 = system: RXF 393
SF-295 = system: SF-295
SF-539 = system: SF-539
SK-MEL-2 = system: SK-MEL-2
SK-MEL-5 = system: SK-MEL-5
SK-OV-3 = system: SK-OV-3
SN12C = system: SN12C
SNB-19 = system: SNB-19
SNB-75 = system: SNB-75
SR = system: SR
SW-620 = system: SW-620
T47D = system: T47D
TK-10 = system: TK-10
U-251 = system: U-251
UACC-257 = system: UACC-257
UACC-62 = system: UACC-62
UO-31 = system: UO-31
SF-268 = system: SF-268
SK-MEL-28 = system: SK-MEL-28

O=C(N/C=C1\C(=O)Oc2ccccc2C1=O)Oc1ccccc1
GI50 (786-0): 23.7 µM (inactive)
GI50 (A498): 15.2 µM (inactive)
GI50 (A549): 32.5 µM (inactive)
GI50 (ACHN): 20.9 µM (inactive)
GI50 (BT-549): 18.7 µM (inactive)
GI50 (CAKI-1): 21.6 µM (inactive)
GI50 (CCRF-CEM): 25 µM (inactive)
GI50 (COLO 205): 41.4 µM (inactive)
GI50 (DU-145): 20 µM (inactive)
GI50 (EKVX): 27.7 µM (inactive)
GI50 (HCC 2998): 24.8 µM (inactive)
GI50 (HCT-116): 21.4 µM (inactive)
GI50 (HCT-15): 23.7 µM
GI50 (HL-60): 29.9 µM (inactive)
GI50 (HOP-62): 17.6 µM (inactive)
GI50 (HOP-92): 22.1 µM (inactive)
GI50 (HT-29): 40.8 µM (inactive)
GI50 (Hs-578T): 9.64 µM (inactive)
GI50 (IGROV-1): 20.7 µM (inactive)
GI50 (K562): 55.3 µM (inactive)
GI50 (KM12): 35.6 µM (inactive)
GI50 (LOX IMVI): 25.1 µM (inactive)
GI50 (M14): 19.2 µM (inactive)
GI50 (MCF7): 35.1 µM (inactive)
GI50 (MDA-MB-231): 16.7 µM (inactive)
GI50 (MDA-MB-435): 20.1 µM (inactive)
GI50 (MDA-N): 18.1 µM (inactive)
GI50 (MOLT-4): 24.9 µM (inactive)
GI50 (Malme-3M): 19.1 µM (inactive)
GI50 (NCI-H226): 14.4 µM (inactive)
GI50 (NCI-H23): 25.6 µM (inactive)
GI50 (NCI-H460): 33.9 µM (inactive)
GI50 (NCI-H522): 25 µM (inactive)
GI50 (NCI/ADR-RES): 27.4 µM (inactive)
GI50 (OVCAR-3): 17 µM (inactive)
GI50 (OVCAR-4): 22.5 µM (inactive)
GI50 (OVCAR-5): 46.1 µM (inactive)
GI50 (OVCAR-8): 25.8 µM (inactive)
GI50 (PC-3): 29.5 µM (inactive)
GI50 (RPMI-8226): 91.4 µM (inactive)
GI50 (RXF 393): 8.59 µM (inactive)
GI50 (SF-295): 30.5 µM (inactive)
GI50 (SF-539): 16 µM (inactive)
GI50 (SK-MEL-2): 14.5 µM (inactive)
GI50 (SK-MEL-5): 32.7 µM (inactive)
GI50 (SK-OV-3): 6.27 µM (inactive)
GI50 (SN12C): 18.6 µM (inactive)
GI50 (SNB-19): 30.6 µM (inactive)
GI50 (SNB-75): 14.3 µM (inactive)
GI50 (SR): 18 µM (inactive)
GI50 (SW-620): 30.8 µM (inactive)
GI50 (T47D): 22.4 µM (inactive)
GI50 (TK-10): 22.9 µM (inactive)
GI50 (U-251): 23.9 µM (inactive)
GI50 (UACC-257): 31 µM (inactive)
GI50 (UACC-62): 20 µM (inactive)
GI50 (UO-31): 16.4 µM (inactive)

C[N+](C)(C)CC(=O)N/N=C(/CC1OC(=O)c2ccccc21)c1ccccc1O (stereo not given)
GI50 (786-0): 25.8 µM (inactive)
GI50 (A498): 38.5 µM (inactive)
GI50 (A549): 76.6 µM (inactive)
GI50 (ACHN): 20.3 µM (inactive)
GI50 (BT-549): 25.1 µM (inactive)
GI50 (CAKI-1): 34.1 µM (inactive)
GI50 (CCRF-CEM): 19 µM (inactive)
GI50 (COLO 205): 68.2 µM (inactive)
GI50 (DU-145): 34.7 µM (inactive)
GI50 (EKVX): 62.4 µM (inactive)
GI50 (HCC 2998): 22.4 µM (inactive)
GI50 (HCT-116): 28.4 µM (inactive)
GI50 (HCT-15): 36.2 µM
GI50 (HL-60): 16.2 µM (inactive)
GI50 (HOP-62): 35.4 µM (inactive)
GI50 (HOP-92): 29.7 µM (inactive)
GI50 (HT-29): 44.1 µM (inactive)
GI50 (Hs-578T): 60.3 µM (inactive)
GI50 (IGROV-1): 37.8 µM (inactive)
GI50 (KM12): 26.7 µM (inactive)
GI50 (LOX IMVI): 17.4 µM (inactive)
GI50 (M14): > 100 µM (inactive)
GI50 (MCF7): 54.8 µM (inactive)
GI50 (MDA-MB-231): 95.9 µM (inactive)
GI50 (MDA-MB-435): 30.6 µM (inactive)
GI50 (MDA-N): 54.1 µM (inactive)
GI50 (MOLT-4): 16.2 µM (inactive)
GI50 (Malme-3M): 59.8 µM (inactive)
GI50 (NCI-H226): 20 µM (inactive)
GI50 (NCI-H23): 26.5 µM (inactive)
GI50 (NCI-H460): 24.4 µM (inactive)
GI50 (NCI-H522): 46.5 µM (inactive)
GI50 (NCI/ADR-RES): 19.3 µM (inactive)
GI50 (OVCAR-3): 62.4 µM (inactive)
GI50 (OVCAR-4): 45.1 µM (inactive)
GI50 (OVCAR-5): > 100 µM (inactive)
GI50 (OVCAR-8): 29.2 µM (inactive)
GI50 (PC-3): 60.5 µM (inactive)
GI50 (RPMI-8226): 5.94 µM (inactive)
GI50 (RXF 393): 28 µM (inactive)
GI50 (SF-268): 81.8 µM (inactive)
GI50 (SF-295): 42.4 µM (inactive)
GI50 (SF-539): 20.3 µM (inactive)
GI50 (SK-MEL-28): 29.2 µM (inactive)
GI50 (SK-MEL-2): 72.8 µM (inactive)
GI50 (SK-MEL-5): 46.6 µM (inactive)
GI50 (SK-OV-3): 35.2 µM (inactive)
GI50 (SN12C): 49 µM (inactive)
GI50 (SNB-19): 46.8 µM (inactive)
GI50 (SNB-75): 39.1 µM (inactive)
GI50 (SR): 14.3 µM (inactive)
GI50 (SW-620): 33.4 µM (inactive)
GI50 (T47D): 25.6 µM (inactive)
GI50 (TK-10): 31.9 µM (inactive)
GI50 (U-251): 22 µM (inactive)
GI50 (UACC-257): 24 µM (inactive)
GI50 (UACC-62): 22.9 µM (inactive)
GI50 (UO-31): 24.2 µM (inactive)
